Test results as given in patent publication US20220175761A1, “BI-LIGAND DRUG CONJUGATE AND USE THEREOF” (COHERENT BIOPHARMA (SUZHOU), LIMITED, priority 2019, published 2022).
Square brackets hold non-standard residues; d marks the D form. Peptide text beside a SMILES is read from it. * marks the point of attachment. Dolaproine = CO[C@@H]([C@@H]1CCCN1)[C@@H](C)C(=O)O; Dil = CC[C@H](C)[C@H](NC)[C@@H](CC(=O)O)OC; X1 = C[C@@H](N*)[C@@H](O)c1ccccc1; NMeV = CN[C@H](C(=O)O)C(C)C

How the values were obtained:
[1] = tested on: KB, MIA paca-2, HCC1954, CALU-3 and DU145 cell lines (CDX tumor models); assay: Pharmacodynamic study 1 of CB-20BK in CDX models; type: in vivo, BALB/c-nude mice; conditions: tail vein injection
Method: CB-20BK lyophilized powder was weighed, dissolved with PBS and prepared into a sample mother solution, and the mother solution was diluted with a physiological saline for injection to a sample solution with a working concentration for later use.
Main cell lines: KB human oral epidermoid carcinoma cells, MIA paca-2 human pancreatic cancer cells, HCC1954 human breast cancer cells, CALU-3 human lung adenocarcinoma cells and DU145 human prostate cancer cells.
Model construction: The cells were resuscitated, cultured, collected, counted, and subcutaneously injected into the right flank of BALB/c-nude mice. When the tumor grew and expanded to 80-160 mm^3, grouping and administration were performed, or rapidly expanded tumor masses were transferred and injected to mice for scale up.
Grouping: When the tumor grew to about 80-160 mm^3 on average, a grouping was performed, and a model control group and different doses of administration groups were set.
Administration: The mice were administrated via tail vein injection.
The weight of mice and the long diameter (a) and short diameter (b) of tumor mass were measured twice a week. The formula for the calculation of tumor volume (TV) is: TV=½×a×b^2.

[2] = tested on: NCI-H226 (human lung cancer cells); assay: Inhibition of cell line proliferation, CCK8; type: cell-based; conditions: NCI-H226, 68-72 hours, CCK8
[3] = tested on: lung cancer PDX model LU2505; assay: Effectiveness in lung cancer LU2505 model (PDX model); type: in vivo, BALB/c nude mice
From the text: The active substance of test sample CBP-1018 is CB-20BK, which is obtained by mixing CB-20BK with auxiliary materials and then lyophilizing same.

[4] = tested on: lung cancer PDX model LU1206; assay: Effectiveness in lung cancer LU1206 model (PDX model); type: in vivo, BALB/c nude mice
Method: BALB/c nude mice bore tumors subcutaneously and, when the tumor volume reached about 150 mm^3, were grouped into: low-dose, medium-dose and high-dose test sample groups, a small molecule MMAE control group, a targeting polypeptide 20BK-SM09 control group, and a blank control group (a total of 6 groups, and 8 mice per group); the mice were administered on day 1, day 8 and day 15 after the grouping; and the observation was continued for 14 days after the last administration.

[5] = tested on: MDA-MB-468 (human breast cancer cells); assay: Inhibition of cell line proliferation, CCK8; type: cell-based; conditions: MDA-MB-468, 68-72 hours, CCK8
[6] = 0.375 mg/kg on day 1, 8, 15, D22
[7] = 0.375 mg/kg on day 1, 8, 15, euthanized on day 29

Row | SMILES | inhibitory effect in CDX tumor models (tumor volume) [1] | IC50 [2] | tumor growth inhibition effect (in words) ([3]; 0.375 mg/kg) | Tumor growth inhibition rate TGI % [3, 6] | Tumor volume [3, 6] | Tumor weight ([3]; 0.375 mg/kg on day 1, 8, 15, D29) | tumor growth inhibition effect (in words) ([4]; 0.375 mg/kg) | Tumor volume ([4]; 0.375 mg/kg on day 1, 8, 15) | Tumor volume Tumor growth inhibition rate ([4]; 0.375 mg/kg on day 1, 8, 15) | Tumor weight [4, 7] | Tumor weight Inhibition ratio [4, 7] | IC50 [5]
1 | CC[C@H](C)[C@@H]([C@@H](CC(=O)N1CCC[C@H]1[C@H](OC)[C@@H](C)C(=O)N[C@H](C)[C@@H](O)c1ccccc1)OC)N(C)C(=O)[C@@H](NC(=O)[C@H](C(C)C)N(C)C(=O)OCc1ccc(NC(=O)C(CCCNC(N)=O)NC(=O)[C@@H](NC(=O)CCCCCN2C(=O)CC(SC[C@H](NC(=O)[C@H](CCCCN)NC(=O)[C@H](CC(=O)O)NC(=O)[C@H](CC(=O)O)NC(=O)Cc3ccc(CNC(=O)NCCCC[C@H](NC(=O)N[C@@H](CCC(=O)O)C(=O)O)C(=O)O)cc3)C(=O)N[C@@H](CCCCNC(=O)CC[C@H](NC(=O)c3ccc(NCc4cnc5[nH]c(N)nc(=O)c5n4)cc3)C(=O)O)C(N)=O)C2=O)C(C)C)cc1)C(C)C (stereo partly drawn) [CB-20BK] | good inhibitory effect | – | – | – | – | – | – | – | – | – | – | –
2 | CC[C@H](C)[C@@H]([C@@H](CC(=O)N1CCC[C@H]1[C@H](OC)[C@@H](C)C(=O)N[C@H](C)[C@@H](O)c1ccccc1)OC)N(C)C(=O)[C@@H](NC(=O)[C@@H](NC)C(C)C)C(C)C [MMAE, monomethyl auristatin E] (H-[NMeV]V[Dil][Dolaproine]-X1) | – | 6 nM | clear tumor growth inhibition effect | 48.97% | 1132.61 mm^3 | 1597.1 (D29) mg | clear tumor growth inhibition effect | 778.32 mm^3 | 36.03% | 437.73 mg | 54.53% | 2 nM
